Assay results as given in PubChem BioAssay AID1919003 (Molecular Pharmacology Branch, DTP, NCI, 2023).

Tested on: 786-0 complex spheroids with HUVEC/MSC, growth % test/control
Assay: Anticancer human tumor 786-0 cell line growth inhibition [AhR];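 also: compound exposure lasted seven days before the read-out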
Conditions: for IC50: curve of first compound; for viability, T/C: stronger effect = lower value
In short: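 Spheroids combined tumor cells with HUVEC endothelial cells and human MSCs as stroma. AhR antagonists were paired with standard or investigational drugs, each dosed in half-log steps down from near clinical Cmax, or from 10 microM where Cmax was unknown.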

[1] = second compound 0.1 µM, first compound 0.0316 µM
[2] = second compound 0.1 µM, first compound 0.1 µM
[3] = second compound 0.1 µM, first compound 0.316 µM
[4] = second compound 0.1 µM, first compound 1 µM
[5] = second compound 0.1 µM, first compound 3.16 µM
[6] = second compound 0.1 µM, first compound 10 µM
[7] = second compound 0.316 µM, first compound 0.0316 µM
[8] = second compound 0.316 µM, first compound 0.1 µM
[9] = second compound 0.316 µM, first compound 0.316 µM
[10] = second compound 0.316 µM, first compound 1 µM
[11] = second compound 0.316 µM, first compound 3.16 µM
[12] = second compound 0.316 µM, first compound 10 µM
[13] = second compound 1 µM, first compound 0.0316 µM
[14] = second compound 1 µM, first compound 0.1 µM
[15] = second compound 1 µM, first compound 0.316 µM
[16] = second compound 1 µM, first compound 1 µM
[17] = second compound 1 µM, first compound 3.16 µM
[18] = second compound 1 µM, first compound 10 µM
[19] = second compound 3.16 µM, first compound 0.0316 µM
[20] = second compound 3.16 µM, first compound 0.1 µM
[21] = second compound 3.16 µM, first compound 0.316 µM
[22] = second compound 3.16 µM, first compound 1 µM
[23] = second compound 3.16 µM, first compound 3.16 µM
[24] = second compound 3.16 µM, first compound 10 µM
[25] = second compound 10 µM, first compound 0.0316 µM
[26] = second compound 10 µM, first compound 0.1 µM
[27] = second compound 10 µM, first compound 0.316 µM
[28] = second compound 10 µM, first compound 1 µM
[29] = second compound 10 µM, first compound 3.16 µM
[30] = second compound 10 µM, first compound 10 µM

CC(C)c1c(-c2ccccc2)nc2c(C#N)c[nH]n2c1=O + Cc1ccccc1N=Nc1ccc(NC(=O)c2ccnn2C)c(C)c1
IC50 (second compound 0.1 µM): > 10 µM
IC50 (second compound 0.316 µM): > 10 µM
IC50 (second compound 1 µM): > 10 µM
IC50 (second compound 3.16 µM): > 10 µM
IC50 (second compound 10 µM): > 10 µM
viability, T/C [1]: 93.9%
viability, T/C [2]: 99.9%
viability, T/C [3]: 99.5%
viability, T/C [4]: 101%
viability, T/C [5]: 92.1%
viability, T/C [6]: 99%
viability, T/C [7]: 90.1%
viability, T/C [8]: 93.4%
viability, T/C [9]: 97.1%
viability, T/C [10]: 95.5%
viability, T/C [11]: 92.6%
viability, T/C [12]: 95.2%
viability, T/C [13]: 94.6%
viability, T/C [14]: 92.8%
viability, T/C [15]: 114%
viability, T/C [16]: 98.6%
viability, T/C [17]: 96.3%
viability, T/C [18]: 88.9%
viability, T/C [19]: 86.8%
viability, T/C [20]: 85.3%
viability, T/C [21]: 89.6%
viability, T/C [22]: 82.8%
viability, T/C [23]: 85%
viability, T/C [24]: 84.2%
viability, T/C [25]: 86.6%
viability, T/C [26]: 83.9%
viability, T/C [27]: 84.5%
viability, T/C [28]: 82.4%
viability, T/C [29]: 83.1%
viability, T/C [30]: 79.5%

CC1COCCN1c1cc(-c2ccnn2C)c2ccnc(-c3ccn[nH]3)c2n1 (stereo not given) + Cc1ccccc1N=Nc1ccc(NC(=O)c2ccnn2C)c(C)c1
IC50 (second compound 0.1 µM): 0.196 µM
IC50 (second compound 0.316 µM): 0.197 µM
IC50 (second compound 1 µM): 0.211 µM
IC50 (second compound 3.16 µM): 0.177 µM
IC50 (second compound 10 µM): 0.155 µM
viability, T/C (second compound 0.1 µM, first compound 0.00316 µM): 97.6%
viability, T/C (second compound 0.1 µM, first compound 0.01 µM): 108%
viability, T/C [1]: 105%
viability, T/C [2]: 86.9%
viability, T/C [3]: 23.9%
viability, T/C [4]: 8.22%
viability, T/C (second compound 0.316 µM, first compound 0.00316 µM): 107%
viability, T/C (second compound 0.316 µM, first compound 0.01 µM): 109%
viability, T/C [7]: 108%
viability, T/C [8]: 86.2%
viability, T/C [9]: 24.9%
viability, T/C [10]: 8.15%
viability, T/C (second compound 1 µM, first compound 0.00316 µM): 119%
viability, T/C (second compound 1 µM, first compound 0.01 µM): 104%
viability, T/C [13]: 102%
viability, T/C [14]: 92.5%
viability, T/C [15]: 26.9%
viability, T/C [16]: 7.53%
viability, T/C (second compound 3.16 µM, first compound 0.00316 µM): 99.5%
viability, T/C (second compound 3.16 µM, first compound 0.01 µM): 112%
viability, T/C [19]: 89.3%
viability, T/C [20]: 77.7%
viability, T/C [21]: 22.7%
viability, T/C [22]: 10.2%
viability, T/C (second compound 10 µM, first compound 0.00316 µM): 96.9%
viability, T/C (second compound 10 µM, first compound 0.01 µM): 96.8%
viability, T/C [25]: 96.1%
viability, T/C [26]: 67.5%
viability, T/C [27]: 21.2%
viability, T/C [28]: 9.41%

CC1COCCN1c1cc(C2(S(C)(=N)=O)CC2)nc(-c2ccnc3[nH]ccc23)n1 (stereo not given) + Cc1ccccc1N=Nc1ccc(NC(=O)c2ccnn2C)c(C)c1
IC50 (second compound 0.1 µM): 6.08 µM
IC50 (second compound 0.316 µM): 5.93 µM
IC50 (second compound 1 µM): 6.52 µM
IC50 (second compound 3.16 µM): 6.44 µM
IC50 (second compound 10 µM): 5.28 µM
viability, T/C [1]: 96.9%
viability, T/C [2]: 103%
viability, T/C [3]: 97.7%
viability, T/C [4]: 101%
viability, T/C [5]: 79.6%
viability, T/C [6]: 27.6%
viability, T/C [7]: 92%
viability, T/C [8]: 97.6%
viability, T/C [9]: 102%
viability, T/C [10]: 106%
viability, T/C [11]: 72.7%
viability, T/C [12]: 31.1%
viability, T/C [13]: 98%
viability, T/C [14]: 96.8%
viability, T/C [15]: 103%
viability, T/C [16]: 93.2%
viability, T/C [17]: 79.5%
viability, T/C [18]: 32.8%
viability, T/C [19]: 99.9%
viability, T/C [20]: 105%
viability, T/C [21]: 91.5%
viability, T/C [22]: 89.2%
viability, T/C [23]: 70.3%
viability, T/C [24]: 37.1%
viability, T/C [25]: 97.7%
viability, T/C [26]: 97.2%
viability, T/C [27]: 102%
viability, T/C [28]: 88.5%
viability, T/C [29]: 62.5%
viability, T/C [30]: 34.8%

COc1ccc([C@@H](O)c2cc(-c3ncnc4cc(N5CCOCC5)ccc34)c(F)cc2Cl)nn1 + Cc1ccccc1N=Nc1ccc(NC(=O)c2ccnn2C)c(C)c1
IC50 (second compound 0.1 µM): > 10 µM
IC50 (second compound 0.316 µM): > 10 µM
IC50 (second compound 1 µM): > 10 µM
IC50 (second compound 3.16 µM): > 10 µM
IC50 (second compound 10 µM): 9.48 µM
viability, T/C [1]: 90.6%
viability, T/C [2]: 96%
viability, T/C [3]: 99.4%
viability, T/C [4]: 102%
viability, T/C [5]: 102%
viability, T/C [6]: 79.9%
viability, T/C [7]: 97.6%
viability, T/C [8]: 102%
viability, T/C [9]: 99.2%
viability, T/C [10]: 100%
viability, T/C [11]: 106%
viability, T/C [12]: 87.1%
viability, T/C [13]: 86.4%
viability, T/C [14]: 93.3%
viability, T/C [15]: 96%
viability, T/C [16]: 105%
viability, T/C [17]: 97.1%
viability, T/C [18]: 77.4%
viability, T/C [19]: 84.8%
viability, T/C [20]: 87.1%
viability, T/C [21]: 82.9%
viability, T/C [22]: 84.1%
viability, T/C [23]: 89.3%
viability, T/C [24]: 63.9%
viability, T/C [25]: 96.9%
viability, T/C [26]: 90.2%
viability, T/C [27]: 81.9%
viability, T/C [28]: 86.1%
viability, T/C [29]: 72.8%
viability, T/C [30]: 48.2%

O=C(C=Cn1cnc(-c2cc(C(F)(F)F)cc(C(F)(F)F)c2)n1)NNc1cnccn1 + Cc1ccccc1N=Nc1ccc(NC(=O)c2ccnn2C)c(C)c1
IC50 (second compound 0.1 µM): 0.542 µM
IC50 (second compound 0.316 µM): 0.52 µM
IC50 (second compound 1 µM): 0.47 µM
IC50 (second compound 3.16 µM): 0.566 µM
IC50 (second compound 10 µM): 0.424 µM
viability, T/C (second compound 0.1 µM, first compound 0.00949 µM): 103%
viability, T/C (second compound 0.1 µM, first compound 0.03 µM): 108%
viability, T/C (second compound 0.1 µM, first compound 0.0949 µM): 104%
viability, T/C (second compound 0.1 µM, first compound 0.3 µM): 59.5%
viability, T/C (second compound 0.1 µM, first compound 0.949 µM): 41.4%
viability, T/C (second compound 0.1 µM, first compound 3 µM): 15.4%
viability, T/C (second compound 0.316 µM, first compound 0.00949 µM): 109%
viability, T/C (second compound 0.316 µM, first compound 0.03 µM): 105%
viability, T/C (second compound 0.316 µM, first compound 0.0949 µM): 115%
viability, T/C (second compound 0.316 µM, first compound 0.3 µM): 64.7%
viability, T/C (second compound 0.316 µM, first compound 0.949 µM): 38%
viability, T/C (second compound 0.316 µM, first compound 3 µM): 17.3%
viability, T/C (second compound 1 µM, first compound 0.00949 µM): 113%
viability, T/C (second compound 1 µM, first compound 0.03 µM): 100%
viability, T/C (second compound 1 µM, first compound 0.0949 µM): 104%
viability, T/C (second compound 1 µM, first compound 0.3 µM): 55.8%
viability, T/C (second compound 1 µM, first compound 0.949 µM): 38%
viability, T/C (second compound 1 µM, first compound 3 µM): 16.4%
viability, T/C (second compound 3.16 µM, first compound 0.00949 µM): 91.6%
viability, T/C (second compound 3.16 µM, first compound 0.03 µM): 92.7%
viability, T/C (second compound 3.16 µM, first compound 0.0949 µM): 101%
viability, T/C (second compound 3.16 µM, first compound 0.3 µM): 63.7%
viability, T/C (second compound 3.16 µM, first compound 0.949 µM): 38.6%
viability, T/C (second compound 3.16 µM, first compound 3 µM): 18.2%
viability, T/C (second compound 10 µM, first compound 0.00949 µM): 88.4%
viability, T/C (second compound 10 µM, first compound 0.03 µM): 84.8%
viability, T/C (second compound 10 µM, first compound 0.0949 µM): 74.5%
viability, T/C (second compound 10 µM, first compound 0.3 µM): 56.4%
viability, T/C (second compound 10 µM, first compound 0.949 µM): 34.8%
viability, T/C (second compound 10 µM, first compound 3 µM): 17.3%
